These results are taken from patent US4489163A, “rCRF and analogs” (The Salk Institute for Biological Studies, priority 1983, dated 1984).

Entries after “also recorded” stand apart in the source; their conditions may differ. Bounds are passed on as bounds.

For assay [1] the following is noted: mammals; reported; cited from earlier work.
For assay [2], the system named is secretion of ACTH and β-endorphin. As to conditions: reported; cited from earlier work.
In assay [3] the test system is cultured rat pituitary cells. Put plainly: secretion of ACTH and β-endorphin by cultured rat pituitary cells in vitro. It counts as cell-based. An excerpt:
(§1) The synthetic and the natural rCRF were examined for their effects on the secretion of ACTH and β-endorphin in vitro and the synthetic rCRF was also examined in vivo.

The subject of assay [4] is ACTH and β-endorphin-like (β-END-LI) secretion. Put plainly: ACTH and β-END-LI secretion in vivo after intravenous administration. Details: species or system rats. As to conditions: for stimulation of ACTH and β-END-LI secretion in vivo (words): several rat preparations.
From the text: as §1

Assay [5] in a line: lowering of blood pressure in rats. It counts as in vivo.
Assay [6] can be described thus: lowering of blood pressure in dogs. It is filed as in vivo.
The nature of assay [7]: activity and learning performance after administration into the ventricles. As to conditions: administered into the ventricles, rats. It is filed as in vivo. The text has this: Because ACTH and β-END secretion is the "sine qua non" of an animal's response to stress, it was not surprising that rCRF has significant effects on the brain as a mediator of the body's stress response. Accordingly, rCRF may also find application in modifying the mood, learning and behavior of normal and mentally disordered individuals. Because rCRF and its analogs elevate the levels of ACTH, β-END, β-lipotropin, other pro-opiomelanocortin gene products and corticosterone, its administration can be used to induce their effects on the brain and its periphery to thereby influence memory, mood, pain appreciation, etc., and more specifically, alertness, depression and/or anxiety.

In the case of `CC[C@H](C)[C@H](NC(=O)[C@@H](NC(=O)[C@H](CC(=O)O)NC(=O)[C@H](CC(C)C)NC(=O)[C@H](CC(C)C)NC(=O)[C@H](CC(C)C)NC(=O)[C@H](CCCNC(=N)N)NC(=O)[C@H](CC(N)=O)NC(=O)[C@H](CC(N)=O)NC(=O)[C@H](C)NC(=O)[C@H](C)NC(=O)[C@H](CCC(N)=O)NC(=O)[C@H](CCC(N)=O)NC(=O)[C@H](CCCCN)NC(=O)[C@H](CCC(=O)O)NC(=O)[C@H](CCCCN)NC(=O)[C@H](CCC(=O)O)NC(=O)[C@H](CCC(N)=O)NC(=O)[C@H](CCCCN)NC(=O)[C@H](CCC(=O)O)NC(=O)[C@@H](NC(=O)[C@H](CCC(=O)O)NC(=O)[C@@H](NC(=O)[C@H](CCSC)NC(=O)[C@H](CCCCN)NC(=O)[C@H](CCCNC(=N)N)NC(=O)[C@H](CC(C)C)NC(=O)[C@H](CC(C)C)NC(=O)[C@H](CCC(=O)O)NC(=O)[C@H](CC(C)C)NC(=O)[C@H](CO)NC(=O)[C@H](CC(C)C)NC(=O)[C@H](CC(=O)O)NC(=O)[C@@H](NC(=O)[C@H](CO)NC(=O)[C@@H](NC(=O)[C@@H]1CCCN1C(=O)[C@@H]1CCCN1C(=O)CNC(=O)[C@@H]1CCC(=O)N1)[C@@H](C)CC)[C@@H](C)CC)[C@@H](C)CC)[C@@H](C)CC)[C@@H](C)O)C(N)=O` [Sauvagine], the “biological activity in lowering blood pressure” value in assay [1] is recorded as “biological activity in lowering blood pressure in mammals”. For the same molecule, the “biological activity in stimulating the secretion of ACTH and β-endorphin” value in assay [2] was “stimulating the secretion of ACTH and β-endorphin”.

For the molecule `CC[C@H](C)[C@H](NC(=O)[C@@H](NC(=O)[C@H](CCC(=O)O)NC(=O)[C@H](CCSC)NC(=O)[C@H](CC(C)C)NC(=O)[C@H](CCCCN)NC(=O)[C@H](CCCNC(=N)N)NC(=O)[C@H](CC(N)=O)NC(=O)[C@H](CO)NC(=O)[C@H](Cc1c[nH]cn1)NC(=O)[C@H](C)NC(=O)[C@H](CCC(N)=O)NC(=O)[C@H](CCC(N)=O)NC(=O)[C@H](C)NC(=O)[C@H](CC(C)C)NC(=O)[C@H](CCC(N)=O)NC(=O)[C@H](CCC(=O)O)NC(=O)[C@H](C)NC(=O)[C@H](CCCNC(=N)N)NC(=O)[C@H](C)NC(=O)[C@H](CCSC)NC(=O)[C@H](CCC(=O)O)NC(=O)[C@H](CC(C)C)NC(=O)[C@@H](NC(=O)[C@H](CCC(=O)O)NC(=O)[C@H](CCCNC(=N)N)NC(=O)[C@H](CC(C)C)NC(=O)[C@H](CC(C)C)NC(=O)[C@H](Cc1c[nH]cn1)NC(=O)[C@H](Cc1ccccc1)NC(=O)[C@@H](NC(=O)[C@H](CC(C)C)NC(=O)[C@H](CC(=O)O)NC(=O)[C@H](CC(C)C)NC(=O)[C@H](CO)NC(=O)[C@@H](NC(=O)[C@@H]1CCCN1C(=O)[C@@H]1CCCN1C(=O)[C@H](CCC(=O)O)NC(=O)[C@H](CCC(=O)O)NC(=O)[C@@H](N)CO)[C@@H](C)CC)[C@@H](C)O)C(C)C)[C@@H](C)CC)C(N)=O` [natural rCRF], the “stimulation of secretion of ACTH and β-endorphin in vitro” value is “high potency” in assay [3]; “stimulate ACTH and β-endorphin activies” in assay [3] (listed as isolated rCRF). Moreover, in assay [4] (listed as isolated rCRF), the “stimulation of ACTH and β-END-LI secretion in vivo (words)” value is “stimulate ACTH and β-endorphin activies”.

As to `CC[C@H](C)[C@H](NC(=O)[C@@H](NC(=O)[C@H](CCC(=O)O)NC(=O)[C@H](CCSC)NC(=O)[C@H](CC(C)C)NC(=O)[C@H](CCCCN)NC(=O)[C@H](CCCNC(=N)N)NC(=O)[C@H](CC(N)=O)NC(=O)[C@H](CO)NC(=O)[C@H](Cc1c[nH]cn1)NC(=O)[C@H](C)NC(=O)[C@H](CCC(N)=O)NC(=O)[C@H](CCC(N)=O)NC(=O)[C@H](C)NC(=O)[C@H](CC(C)C)NC(=O)[C@H](CCC(N)=O)NC(=O)[C@H](CCC(=O)O)NC(=O)[C@H](C)NC(=O)[C@H](CCCNC(=N)N)NC(=O)[C@H](C)NC(=O)[C@H](CCSC)NC(=O)[C@H](CCC(=O)O)NC(=O)[C@H](CC(C)C)NC(=O)[C@@H](NC(=O)[C@H](CCC(=O)O)NC(=O)[C@H](CCCNC(=N)N)NC(=O)[C@H](CC(C)C)NC(=O)[C@H](CC(C)C)NC(=O)[C@H](Cc1c[nH]cn1)NC(=O)[C@H](Cc1ccccc1)NC(=O)[C@@H](NC(=O)[C@H](CC(C)C)NC(=O)[C@H](CC(=O)O)NC(=O)[C@H](CC(C)C)NC(=O)[C@H](CO)NC(=O)[C@@H](NC(=O)[C@@H]1CCCN1C(=O)[C@@H]1CCCN1C(=O)[C@H](CCC(=O)O)NC(=O)[C@H](CCC(=O)O)NC(=O)[C@@H](N)CO)[C@@H](C)CC)[C@@H](C)O)C(C)C)[C@@H](C)CC)C(N)=O` [synthetic rCRF], in assay [3] (concentration giving half-maximal response, cultured rat pituitary cells), the EC50 is around 0.1 nM. Moreover, in assay [3] (concentration giving minimal response, cultured rat pituitary cells), the “minimal response, secretion of ACTH and β-endorphin” value was “about 10 picomolar”. The “maximal concentrations, secretory response at a plateau level” value in assay [3] (cultured rat pituitary cells) is on record as above 5 nM. Moreover, in assay [3], the “stimulation of secretion of ACTH and β-endorphin in vitro” value is “high potency; also recorded: stimulate ACTH and β-endorphin activies”. The “elevation of ACTH and β-endorphin-like (β-END-LI) secretion” value in assay [4] (in vivo doses from 30 ng to 3 μg/Kg of body weight) is given as 5-20 fold. The “stimulation of ACTH and β-END-LI secretion in vivo (words)” value in assay [4] was “stimulate ACTH and β-endorphin activies”; in assay [4] (listed as Synthetic rCRF), “powerful stimulator of ACTH and β-END-LI secretion in vivo”. In addition, the “time plasma levels of ACTH and β-END-LI are elevated” value in assay [4] (intravenous, nembutal-anesthesized male rats and quiescent male or female rats with indwelling cannulae) lay within 5 to 20 min. In addition, the “lowering of blood pressure” value is “dramatic effect to lower blood pressure” in assay [5] (rats); “substantially lower blood pressure for an extended time period” in assay [5] (species not given, general procedure of Example III); “dramatic effect to lower blood pressure” in assay [6]. For the same molecule, in assay [7], the activity result is reported as “increases activity”. In addition, in assay [7], the learning performance result is recorded as “improves learning performance”.

In the case of “H-Ser-Gln-Glu-Pro-Pro-Ile-Ser-Leu-Asp-Leu-Thr-Phe-His-Leu-Leu-Arg-Glu-Val-Leu-Glu-Met-Thr-Lys-Ala-Asp-Gln-Leu-Ala-Gln-Gln-Ala-His-Ser-Asn-Arg-Lys-Leu- Leu-Asp-Ile-Ala-NH2 (H-SQEPPISLDLTFHLLREVLEMTKADQLAQQAHSNRKLLDIA-NH2) [oCRF, ovine corticotropin releasing factor characterized in 1981]”, in assay [1], the “biological activity in lowering blood pressure” value was “biological activity in lowering blood pressure in mammals”. Moreover, the “biological activity in stimulating the secretion of ACTH and β-endorphin” value in assay [2] was “stimulating the secretion of ACTH and β-endorphin”.

In general, EC50 refers to the midpoint of the concentration-response curve. A higher EC50 goes with a less potent agent.
